Laboratory results reported in ChEMBL document CHEMBL5724914, “Linking interpersonal differences in gut microbiota composition and drug biotransformation activity” (2024).

Legend:
[1] = human gut metagenome, 24 h, 2 µM
[2] = human gut metagenome, 24 h, 2 µM; remark: listed apart in the source
[3] = (§1) The drug is tested on Z-004 corresponding to metagenome with ENA study accession number: PRJEB37062 and ENA sample accession number: ERS12561804 for biotransformation under anaerobic condition. The drug concentrations were measured over 9 timepoints collected between 0 and 24 hours of incubation by liquid-chromatography-coupled mass spectrometry (LC–MS); conditions: 2 µM
[4] = human gut metagenome, 24 h, 2 µM; remark: listed apart in the source
[5] = human gut metagenome, 24 h, 2 µM; remark: listed apart in the source
[6] = (§2) The drug is tested on WLS-027 corresponding to human gut metagenome with ENA study accession number: PRJEB37062 and ENA sample accession number: ERS12561744 for biotransformation under anaerobic condition. The drug concentrations were measured over 9 timepoints collected between 0 and 24 hours of incubation by liquid-chromatography-coupled mass spectrometry (LC–MS); conditions: 2 µM
[7] = as §2, with “Z-014” for “WLS-027”, “rat” for “human”, “ERS12561814” for “ERS12561744”; conditions: 2 µM
[8] = as §2, with “Z-020” for “WLS-027”, “rabbit” for “human”, “ERS12561819” for “ERS12561744”; conditions: 2 µM
[9] = human gut metagenome, 24 h, 2 µM; remark: listed apart in the source
[10] = as §2, with “Z-025” for “WLS-027”, “rabbit” for “human”, “ERS12561824” for “ERS12561744”; conditions: 2 µM
[11] = as §1, with “Z-021” for “Z-004”, “ERS12561820” for “ERS12561804”; conditions: 2 µM
[12] = as §2, with “Z-001” for “WLS-027”, “mouse” for “human”, “ERS12561801” for “ERS12561744”; conditions: 2 µM
[13] = as §2, with “Z-022” for “WLS-027”, “mouse” for “human”, “ERS12561821” for “ERS12561744”; conditions: 2 µM
[14] = human gut metagenome, 24 h, 2 µM; remark: listed apart in the source
[15] = human gut metagenome, 24 h, 2 µM; remark: listed apart in the source
[16] = human gut metagenome, 24 h, 2 µM; remark: listed apart in the source
[17] = human gut metagenome, 24 h, 2 µM; remark: listed apart in the source
[18] = as §2, with “WLS-170” for “WLS-027”, “ERS12561762” for “ERS12561744”; conditions: 2 µM
[19] = as §2, with “WLS-007” for “WLS-027”, “ERS12561742” for “ERS12561744”; conditions: 2 µM
[20] = as §1, with “Z-026” for “Z-004”, “ERS12561825” for “ERS12561804”; conditions: 2 µM
Further: call rule not given here.

Compound | Bacterial Biotransformation [1] | Bacterial Biotransformation [2] | Bacterial Biotransformation [3] | Bacterial Biotransformation [4] | Bacterial Biotransformation [5] | Bacterial Biotransformation [6] | Bacterial Biotransformation [7] | Bacterial Biotransformation [8] | Bacterial Biotransformation [9] | Bacterial Biotransformation [10] | Bacterial Biotransformation [11] | Bacterial Biotransformation [12] | Bacterial Biotransformation [13] | Bacterial Biotransformation [14] | Bacterial Biotransformation [15] | Bacterial Biotransformation [16] | Bacterial Biotransformation [17] | Bacterial Biotransformation [18] | Bacterial Biotransformation [19] | Bacterial Biotransformation [20]
CC(C)NCC(O)COc1ccc(COCCOC(C)C)cc1.CC(C)NCC(O)COc1ccc(COCCOC(C)C)cc1.O=C(O)/C=C/C(=O)O (stereo not given) [BISOPROLOL FUMARATE] | Compound NOT metabolized | Compound metabolized | Compound NOT metabolized | Compound NOT metabolized | Compound NOT metabolized | Compound NOT metabolized | Compound NOT metabolized | Compound NOT metabolized | Compound metabolized | Compound metabolized | Compound metabolized | Compound metabolized | Compound metabolized | Compound NOT metabolized | Compound metabolized | Compound metabolized | Compound NOT metabolized | Compound metabolized | Compound metabolized | Compound NOT metabolized
CCCCCOC(=O)Nc1nc(=O)n([C@@H]2O[C@H](C)[C@@H](O)[C@H]2O)cc1F [CAPECITABINE] | Compound NOT metabolized | Compound metabolized | Compound metabolized | Compound metabolized | Compound metabolized | Compound metabolized | Compound NOT metabolized | Compound metabolized | Compound metabolized | Compound metabolized | Compound metabolized | Compound metabolized | Compound NOT metabolized | Compound metabolized | Compound metabolized | Compound metabolized | Compound metabolized | Compound metabolized | Compound metabolized | Compound NOT metabolized
Cc1ccc(-c2cc(C(F)(F)F)nn2-c2ccc(S(N)(=O)=O)cc2)cc1 [CELECOXIB] | Compound NOT metabolized | Compound metabolized | Compound NOT metabolized | Compound metabolized | Compound metabolized | Compound metabolized | Compound NOT metabolized | Compound NOT metabolized | Compound metabolized | Compound NOT metabolized | Compound NOT metabolized | Compound NOT metabolized | Compound NOT metabolized | Compound NOT metabolized | Compound metabolized | Compound metabolized | Compound metabolized | Compound NOT metabolized | Compound metabolized | Compound NOT metabolized
CN1C(=O)CCS(=O)(=O)C1c1ccc(Cl)cc1 (stereo not given) [CHLORMEZANONE] | Compound NOT metabolized | Compound NOT metabolized | Compound NOT metabolized | Compound NOT metabolized | Compound NOT metabolized | Compound NOT metabolized | Compound NOT metabolized | Compound NOT metabolized | Compound metabolized | Compound NOT metabolized | Compound NOT metabolized | Compound NOT metabolized | Compound NOT metabolized | Compound NOT metabolized | Compound NOT metabolized | Compound metabolized | Compound NOT metabolized | Compound metabolized | Compound NOT metabolized | Compound NOT metabolized
Clc1ccc(Cn2c(CN3CCCC3)nc3ccccc32)cc1 [CLEMIZOLE] | Compound metabolized | Compound NOT metabolized | Compound NOT metabolized | Compound metabolized | Compound NOT metabolized | Compound metabolized | Compound NOT metabolized | Compound NOT metabolized | Compound metabolized | Compound metabolized | Compound metabolized | Compound metabolized | Compound NOT metabolized | Compound metabolized | Compound metabolized | Compound metabolized | Compound metabolized | Compound metabolized | Compound metabolized | Compound NOT metabolized
CN1CCN(C2=Nc3cc(Cl)ccc3Nc3ccccc32)CC1 [CLOZAPINE] | Compound NOT metabolized | Compound NOT metabolized | Compound NOT metabolized | Compound metabolized | Compound metabolized | Compound metabolized | Compound NOT metabolized | Compound NOT metabolized | Compound NOT metabolized | Compound NOT metabolized | Compound NOT metabolized | Compound NOT metabolized | Compound NOT metabolized | Compound NOT metabolized | Compound metabolized | Compound metabolized | Compound metabolized | Compound metabolized | Compound NOT metabolized | Compound NOT metabolized
COc1cc2c(c(OC)c1OC)-c1ccc(OC)c(=O)cc1[C@@H](NC(C)=O)CC2 [COLCHICINE] | Compound NOT metabolized | Compound metabolized | Compound NOT metabolized | Compound NOT metabolized | Compound metabolized | Compound NOT metabolized | Compound NOT metabolized | Compound NOT metabolized | Compound metabolized | Compound NOT metabolized | Compound NOT metabolized | Compound NOT metabolized | Compound metabolized | Compound NOT metabolized | Compound metabolized | Compound metabolized | Compound NOT metabolized | Compound metabolized | Compound metabolized | Compound NOT metabolized
